ChEMBL document CHEMBL4507276 (2021)

What was measured:
[1] = target: Tyrosine-protein kinase FRK (Homo sapiens) (UniProt P42685); experiment: FRK Invitrogen selectivity data (BI); conditions: Compound concentration 3.0 uM
[2] = target: T1, Ephrin type-B receptor 3 (Homo sapiens) (UniProt P54753); experiment: EPHB3 Invitrogen selectivity data (BI); conditions: Compound concentration 3.0 uM
T1 sequence (whole entry): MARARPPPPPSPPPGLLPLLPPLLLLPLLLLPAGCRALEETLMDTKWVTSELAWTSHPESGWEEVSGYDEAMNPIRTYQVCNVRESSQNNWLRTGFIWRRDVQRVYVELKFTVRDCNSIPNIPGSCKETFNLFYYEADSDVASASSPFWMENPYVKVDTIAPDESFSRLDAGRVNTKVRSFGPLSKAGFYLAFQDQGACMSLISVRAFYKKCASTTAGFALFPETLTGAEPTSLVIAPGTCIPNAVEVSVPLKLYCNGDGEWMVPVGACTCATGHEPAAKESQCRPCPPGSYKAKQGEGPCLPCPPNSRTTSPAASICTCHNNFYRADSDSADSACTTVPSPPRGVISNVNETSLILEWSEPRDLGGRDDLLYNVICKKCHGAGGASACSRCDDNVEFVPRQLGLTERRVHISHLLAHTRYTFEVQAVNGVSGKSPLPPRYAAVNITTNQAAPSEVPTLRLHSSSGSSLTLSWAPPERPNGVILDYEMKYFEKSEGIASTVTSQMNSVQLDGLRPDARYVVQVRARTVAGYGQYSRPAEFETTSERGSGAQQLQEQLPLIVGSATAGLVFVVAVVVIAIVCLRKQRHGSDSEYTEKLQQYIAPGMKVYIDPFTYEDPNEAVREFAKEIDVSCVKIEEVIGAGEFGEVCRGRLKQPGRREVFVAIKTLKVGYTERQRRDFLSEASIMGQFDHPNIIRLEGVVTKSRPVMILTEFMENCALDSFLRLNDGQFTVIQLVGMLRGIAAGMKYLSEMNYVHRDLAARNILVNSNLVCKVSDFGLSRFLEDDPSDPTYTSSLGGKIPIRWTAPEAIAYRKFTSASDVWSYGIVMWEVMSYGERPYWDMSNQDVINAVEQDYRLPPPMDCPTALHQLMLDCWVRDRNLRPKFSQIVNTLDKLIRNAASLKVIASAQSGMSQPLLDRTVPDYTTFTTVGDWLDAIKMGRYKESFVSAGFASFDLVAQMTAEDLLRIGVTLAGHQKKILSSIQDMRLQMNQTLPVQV

[3] = target: T2, Inhibitor of nuclear factor kappa-B kinase subunit epsilon (Homo sapiens) (UniProt Q14164); experiment: IKBKE Invitrogen selectivity data (BI); conditions: Compound concentration 3.0 uM
T2 sequence (whole entry): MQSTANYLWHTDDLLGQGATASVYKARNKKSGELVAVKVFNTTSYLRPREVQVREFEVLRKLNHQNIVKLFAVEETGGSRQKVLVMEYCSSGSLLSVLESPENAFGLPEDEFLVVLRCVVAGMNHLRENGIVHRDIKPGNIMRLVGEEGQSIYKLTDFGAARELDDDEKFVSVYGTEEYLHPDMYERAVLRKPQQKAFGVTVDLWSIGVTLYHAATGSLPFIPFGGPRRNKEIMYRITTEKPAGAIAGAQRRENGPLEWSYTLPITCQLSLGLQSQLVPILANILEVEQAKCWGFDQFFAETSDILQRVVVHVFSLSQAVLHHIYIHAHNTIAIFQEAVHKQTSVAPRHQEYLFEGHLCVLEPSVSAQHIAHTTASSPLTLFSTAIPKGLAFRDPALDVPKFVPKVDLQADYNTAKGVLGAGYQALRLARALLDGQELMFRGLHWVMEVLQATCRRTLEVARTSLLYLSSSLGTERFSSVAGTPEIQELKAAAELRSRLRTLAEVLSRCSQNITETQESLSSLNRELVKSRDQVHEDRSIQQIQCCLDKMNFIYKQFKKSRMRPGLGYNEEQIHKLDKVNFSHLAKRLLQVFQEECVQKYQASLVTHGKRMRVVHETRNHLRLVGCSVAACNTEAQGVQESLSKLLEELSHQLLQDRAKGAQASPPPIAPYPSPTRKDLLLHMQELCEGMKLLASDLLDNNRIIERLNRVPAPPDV

[4] = target: Serine/threonine-protein kinase B-raf (Homo sapiens) (UniProt P15056); experiment: BRAF Invitrogen selectivity data (BI); conditions: Compound concentration 3.0 uM
[5] = target: T3, Mitogen-activated protein kinase kinase kinase 7 (Homo sapiens) (UniProt O43318); experiment: MAP3K7_K7IP1 Invitrogen selectivity data (BI); conditions: Compound concentration 3.0 uM
T3 sequence (whole entry): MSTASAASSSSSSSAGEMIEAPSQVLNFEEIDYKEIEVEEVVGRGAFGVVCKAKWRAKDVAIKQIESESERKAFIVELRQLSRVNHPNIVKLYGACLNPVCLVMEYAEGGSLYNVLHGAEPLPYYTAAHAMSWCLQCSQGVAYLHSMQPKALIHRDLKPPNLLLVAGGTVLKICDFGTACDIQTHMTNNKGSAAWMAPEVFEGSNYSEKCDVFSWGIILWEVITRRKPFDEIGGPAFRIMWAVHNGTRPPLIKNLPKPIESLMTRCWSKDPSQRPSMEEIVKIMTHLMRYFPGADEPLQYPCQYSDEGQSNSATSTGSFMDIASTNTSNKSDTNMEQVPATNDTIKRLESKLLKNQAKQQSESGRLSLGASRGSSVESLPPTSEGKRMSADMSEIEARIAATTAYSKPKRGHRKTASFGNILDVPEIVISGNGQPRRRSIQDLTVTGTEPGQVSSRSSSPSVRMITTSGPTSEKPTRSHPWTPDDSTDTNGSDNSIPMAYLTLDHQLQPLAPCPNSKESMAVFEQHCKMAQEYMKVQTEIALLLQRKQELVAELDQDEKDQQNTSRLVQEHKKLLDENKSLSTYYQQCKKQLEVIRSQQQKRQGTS

[6] = target: Tyrosine-protein kinase Srms (Homo sapiens) (UniProt Q9H3Y6); experiment: SRMS Invitrogen selectivity data (BI); conditions: Compound concentration 3.0 uM
[7] = target: Protein kinase C eta type (Homo sapiens) (UniProt P24723); experiment: PRKCH Invitrogen selectivity data (BI); conditions: Compound concentration 3.0 uM
[8] = target: T4, Muscarinic acetylcholine receptor M2 (Homo sapiens) (UniProt P08172); experiment: M2/H Cerep selectivity data (BI); conditions: filed as antagonist, Compound concentration 20.0 uM
T4 sequence (whole entry): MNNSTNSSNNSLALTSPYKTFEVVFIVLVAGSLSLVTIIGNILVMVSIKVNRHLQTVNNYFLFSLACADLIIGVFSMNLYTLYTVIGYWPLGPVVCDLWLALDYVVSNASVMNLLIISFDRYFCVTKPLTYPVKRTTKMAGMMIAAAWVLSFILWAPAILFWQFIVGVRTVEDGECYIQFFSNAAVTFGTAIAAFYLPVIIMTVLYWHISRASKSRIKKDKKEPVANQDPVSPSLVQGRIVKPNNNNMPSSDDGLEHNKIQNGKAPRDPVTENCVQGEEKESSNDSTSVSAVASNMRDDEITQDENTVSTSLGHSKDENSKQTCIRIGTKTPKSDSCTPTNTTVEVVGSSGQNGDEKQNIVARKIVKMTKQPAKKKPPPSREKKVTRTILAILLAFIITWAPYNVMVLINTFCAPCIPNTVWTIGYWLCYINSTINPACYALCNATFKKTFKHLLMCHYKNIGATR

Measured: residual activity

Sequence of Tyrosine-protein kinase FRK (Homo sapiens) (P42685 whole entry): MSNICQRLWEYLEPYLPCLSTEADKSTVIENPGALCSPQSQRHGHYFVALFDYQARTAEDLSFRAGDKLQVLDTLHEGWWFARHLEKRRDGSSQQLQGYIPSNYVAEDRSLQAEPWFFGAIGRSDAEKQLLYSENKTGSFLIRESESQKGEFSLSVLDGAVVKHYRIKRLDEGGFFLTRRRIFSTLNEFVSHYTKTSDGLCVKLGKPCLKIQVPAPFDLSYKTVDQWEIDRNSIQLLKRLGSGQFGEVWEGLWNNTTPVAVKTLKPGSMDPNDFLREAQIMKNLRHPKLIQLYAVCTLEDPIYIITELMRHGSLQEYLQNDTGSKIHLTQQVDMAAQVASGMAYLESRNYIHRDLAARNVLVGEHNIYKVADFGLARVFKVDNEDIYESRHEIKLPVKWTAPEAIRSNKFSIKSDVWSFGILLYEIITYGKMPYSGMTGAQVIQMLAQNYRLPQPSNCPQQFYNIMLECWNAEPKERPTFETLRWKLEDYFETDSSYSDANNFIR
Sequence of Serine/threonine-protein kinase B-raf (Homo sapiens) (P15056 whole entry): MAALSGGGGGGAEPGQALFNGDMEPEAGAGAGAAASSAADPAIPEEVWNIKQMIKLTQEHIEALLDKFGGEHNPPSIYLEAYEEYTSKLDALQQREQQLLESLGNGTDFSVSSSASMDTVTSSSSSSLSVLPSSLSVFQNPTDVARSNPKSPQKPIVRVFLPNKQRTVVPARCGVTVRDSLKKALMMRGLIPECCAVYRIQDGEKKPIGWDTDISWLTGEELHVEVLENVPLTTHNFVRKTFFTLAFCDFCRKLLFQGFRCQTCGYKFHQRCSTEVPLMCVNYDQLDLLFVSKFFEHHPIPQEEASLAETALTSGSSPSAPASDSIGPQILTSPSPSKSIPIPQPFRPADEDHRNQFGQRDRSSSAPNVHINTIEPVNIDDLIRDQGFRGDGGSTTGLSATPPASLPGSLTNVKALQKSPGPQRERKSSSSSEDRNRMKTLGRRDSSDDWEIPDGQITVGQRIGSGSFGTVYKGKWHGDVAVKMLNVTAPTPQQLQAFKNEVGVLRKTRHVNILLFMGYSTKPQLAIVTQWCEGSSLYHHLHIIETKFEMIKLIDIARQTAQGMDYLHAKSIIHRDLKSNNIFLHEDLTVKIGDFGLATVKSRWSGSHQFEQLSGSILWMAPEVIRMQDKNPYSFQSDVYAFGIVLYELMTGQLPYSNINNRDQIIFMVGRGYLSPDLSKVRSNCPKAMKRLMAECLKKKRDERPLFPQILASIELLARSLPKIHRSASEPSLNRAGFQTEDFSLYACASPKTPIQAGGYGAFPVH
Sequence of Protein kinase C eta type (Homo sapiens) (P24723 whole entry): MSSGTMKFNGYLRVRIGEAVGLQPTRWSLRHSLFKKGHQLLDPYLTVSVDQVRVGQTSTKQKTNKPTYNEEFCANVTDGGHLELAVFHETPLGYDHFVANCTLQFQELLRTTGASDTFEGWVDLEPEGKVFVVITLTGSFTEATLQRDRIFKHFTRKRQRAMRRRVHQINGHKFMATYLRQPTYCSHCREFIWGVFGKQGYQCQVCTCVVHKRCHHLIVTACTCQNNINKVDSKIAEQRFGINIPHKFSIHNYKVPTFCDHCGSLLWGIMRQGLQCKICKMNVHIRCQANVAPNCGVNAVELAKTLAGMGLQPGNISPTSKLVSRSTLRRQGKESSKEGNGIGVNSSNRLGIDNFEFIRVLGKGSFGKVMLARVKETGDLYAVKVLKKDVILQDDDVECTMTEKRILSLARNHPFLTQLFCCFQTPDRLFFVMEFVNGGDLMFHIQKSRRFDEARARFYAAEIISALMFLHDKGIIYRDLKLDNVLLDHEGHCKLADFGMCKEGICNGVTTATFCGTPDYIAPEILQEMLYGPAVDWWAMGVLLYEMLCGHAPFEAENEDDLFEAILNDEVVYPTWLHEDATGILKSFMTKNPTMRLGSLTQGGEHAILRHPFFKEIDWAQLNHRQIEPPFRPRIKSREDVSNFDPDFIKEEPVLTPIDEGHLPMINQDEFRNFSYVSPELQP
Sequence of Tyrosine-protein kinase Srms (Homo sapiens) (Q9H3Y6 whole entry): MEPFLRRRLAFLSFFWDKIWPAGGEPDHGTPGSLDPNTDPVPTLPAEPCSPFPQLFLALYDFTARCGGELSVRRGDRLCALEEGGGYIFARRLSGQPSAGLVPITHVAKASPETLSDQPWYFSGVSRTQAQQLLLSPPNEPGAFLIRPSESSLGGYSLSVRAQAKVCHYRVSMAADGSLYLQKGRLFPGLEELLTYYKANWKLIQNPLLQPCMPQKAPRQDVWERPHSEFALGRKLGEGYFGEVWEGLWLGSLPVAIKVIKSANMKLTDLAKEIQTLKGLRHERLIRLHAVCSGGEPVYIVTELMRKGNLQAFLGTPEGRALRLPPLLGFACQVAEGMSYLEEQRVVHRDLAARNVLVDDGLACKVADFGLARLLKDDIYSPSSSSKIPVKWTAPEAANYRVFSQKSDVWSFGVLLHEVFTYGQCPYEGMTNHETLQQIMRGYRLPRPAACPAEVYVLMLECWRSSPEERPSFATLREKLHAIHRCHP

CN(C)C(=O)Cn1cc(-c2nc([C@@](C)(c3ccc(-c4cnc(N)nc4)cc3)C3CC3)no2)cn1 [BI 665915]
inactive: [1] 94.5% | [2] 97% | [3] 99.5% | [4] 95% | [5] 87% | [6] 98.5% | [7] 86% | [8] 98%
